Patent US12208110B2 (priority 2020, dated 2025)
Like-named read-outs stand apart in the source and are kept apart here.

How the values were obtained:
SARS-CoV-2 = assay: microbe, parasite or virus in culture; format: cell-based
MT-4 cells = assay: MT4 cytotoxicity analysis (CellTiter-Glo); format: cell-based
Outline: (§1)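 MT-4 cells were exposed in quadruplicate to 3-fold serial compound dilutions (DMSO stocks 2.5 uM to 10 mM) for five days at 37 °C. Viability was read by CellTiter-Glo luminescence.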

[1] = test system: RSV-Fluc (Recombinant Respiratory Syncytial virus strain A2 containing the firefly luciferase reporter); assay: microbe, parasite or virus in culture; format: cell-based; details: read-out: RSV-Fluc EC50 (nM, NHBE)
[2] = set-up: species or system Sprague-Dawley (SD) rats; details: male, Sprague-Dawley, rat, in vivo, po, 10 mg/kg
Procedure: Example 80: Rat Lung Phosphate (Monophosphate, Diphosphate and Triphosphate) Data with Exemplary Compounds
Measurement of GS-441524 (compound A below) and its phosphorylated metabolites (compounds B, C, and D below) in lung tissues was performed according to the following protocol.
The concentrations of GS-441524 (A) and its phosphorylated metabolites (B, C, and D) were determined in Sprague-Dawley (SD) rats following oral gavage administration of the test compounds. The in-life phase of studies was conducted at Covance Laboratories (Madison, WI). Animals were housed and handled in accordance with the Guide for the Care and Use of Laboratory Animals, Institute of Laboratory Animal Resources. The protocols were reviewed and approved by the Institutional Animal Care and Use Committees (IACUC). Male SD rats weighing approximately 0.3 kg were used for in-life portion of the studies. The animals were fasted overnight prior to the test compound administration and up to 4 hours post-dose. The animals were administered with the test compound at 5, 8, 10 or 20 mg/kg via oral gavage (3 rats per group). The aqueous formulation contains ethanol, dimethyl sulfoxide, Kolliphor HS-15, Labrasol, and propylene glycol. Approximately 0.5 grams of lung tissue samples were collected from each animal and analyzed by LC/MS/MS for determination of the concentrations of GS-441524 and its phosphorylated metabolites. For LC-MS/MS analysis, tissue samples were homogenized and extracted with 4-fold volume of 70% methanol containing 0.1% potassium hydroxide, 67 mM ethylenediamine tetraacetic acid, and internal standard. Approximately 200 μL aliquot of the homogenate was filtered using a 96-well filter plate (0.2 μm polypropylene; Agilent Captiva, Santa Clara, CA). The filtrate was evaporated to dryness and reconstituted with equal volume of 1 mM ammonium phosphate buffer (pH 7). The samples were then analyzed on a Sciex 6500+ LC-MS/MS instrument (Redwood City, CA). Analytes were eluted on a […] 50×2.0 mm Phenomenex Luna C18 HST column (Torrance, CA) using mobile phases containing 3 mM ammonium formate and 10 mM dimethylhexylamine and a linear gradient from 9% to 50% acetonitrile at a flow rate of 360 μL/min. Data acquisition and processing were accomplished using Sciex Analyst® Software. Total summed levels of GS-441524 phosphorylate metabolites (B+C+D) in lung tissues were generated from the sum of GS-441524 mono-, di- and tri-phosphate (B, C, and D respectively).

[3] = MT4 cytotoxicity analysis (CellTiter-Glo); format: cell-based; details: human, MT4 CC50 (nM)
Outline: as §1

[4] = Severe acute respiratory syndrome coronavirus 2, 48 h
[5] = human respiratory syncytial virus, NHBE, 72 h
[6] = MT-4 cells, five days, CellTiter-Glo, read-out: MT4 CC50

Row | SMILES | EC50 (SARS-CoV-2; [4]) | CC50 (MT-4 cells; human, 5 days) | EC50 [1, 5] | other results
1 | CCCCCCCCCCCCCCCCCCOC[C@H](COP(=O)(O)OC[C@H]1O[C@@](C#N)(c2ccc3c(N)ncnn23)[C@H](O)[C@@H]1O)NC(=O)c1cccc(C#N)c1 [Example 57, ((2R,3S,4R,5R)-5-(4-aminopyrrolo[2,1-f][1,2,4]triazin-7-yl)-5-cyano-3,4-dihydroxytetrahydrofuran-2-yl)methyl ((R)-2-(3-cyanobenzamido)-3-(octadecyloxy)propyl) hydrogen phosphate] | 4.9 µM | 50 µM | 330 nM | 
2 | CCCCCCCCCCCOCCOP(=O)(O)OC[C@H]1O[C@@](C#N)(c2ccc3c(N)ncnn23)[C@H](O)[C@@H]1O [Example 27, ((2R,3S,4R,5R)-5-(4-Aminopyrrolo[2,1-f][1,2,4]triazin-7-yl)-5-cyano-3,4-dihydroxytetrahydrofuran-2-yl)methyl (2-(undecyloxy)ethyl) hydrogen phosphate] | 10 µM |  | 5000 nM | CC50 (MT-4 cells; [6]): 50 µM
3 | CCCCCCCCOCCOP(=O)(O)OC[C@H]1O[C@@](C#N)(c2ccc3c(N)ncnn23)[C@H](O)[C@@H]1O [Example 26, ((2R,3S,4R,5R)-5-(4-Aminopyrrolo[2,1-f][1,2,4]triazin-7-yl)-5-cyano-3,4-dihydroxytetrahydrofuran-2-yl)methyl (2-(octyloxy)ethyl) hydrogen phosphate] | 10 µM |  | 5000 nM | CC50 (MT-4 cells; [6]): 50 µM
4 | CCCCCCCCCCCCCCCCCCOC[C@H](COP(=O)(O)OC[C@H]1O[C@@](C#N)(c2ccc3c(N)ncnn23)[C@H](O)[C@@H]1O)OC(=O)c1ccccc1 [Example 17, (2R)-1-(((((2R,3S,4R,5R)-5-(4-aminopyrrolo[2,1-f][1,2,4]triazin-7-yl)-5-cyano-3,4-dihydroxytetrahydrofuran-2-yl)methoxy)(hydroxy)phosphoryl)oxy)-3-(octadecyloxy)propan-2-yl benzoate] | 0.89 µM | 50 µM | 120 nM | 
5 | CCCCCCCCCCCCCCCCCCOC[C@H](CO[P@@](=O)(S)OC[C@H]1O[C@@](C#N)(c2ccc3c(N)ncnn23)[C@H](O)[C@@H]1O)OCc1ccccc1 [Example 67, O-(((2R,3S,4R,5R)-5-(4-aminopyrrolo[2,1-f][1,2,4]triazin-7-yl)-5-cyano-3,4-dihydroxytetrahydrofuran-2-yl)methyl) O—((R)-2-(benzyloxy)-3-(octadecyloxy)propyl) O-hydrogen (R)-phosphorothioate] | 0.12 µM | 26 µM | 190 nM | 
6 | CCCCCCCCCCCCCCCCCCOC[C@H](COP(=O)(O)OC[C@H]1O[C@@](C#N)(c2ccc3c(N)ncnn23)[C@H](O)[C@@H]1O)Oc1ccccc1C(=O)O [Example 38, 2-(((2R)-1-(((((2R,3S,4R,5R)-5-(4-aminopyrrolo[2,1-f][1,2,4]triazin-7-yl)-5-cyano-3,4-dihydroxytetrahydrofuran-2-yl)methoxy)(hydroxy)phosphoryl)oxy)-3-(octadecyloxy)propan-2-yl)oxy)benzoic acid] |  | 50 µM | 160 nM | 
7 | CCCCCCCCCCCCCCCCCCOC[C@H](COP(=O)(O)OC[C@H]1O[C@@](C#N)(c2ccc3c(N)ncnn23)[C@H](O)[C@@H]1O)NC(=O)c1ccccc1 [Example 30, ((2R,3S,4R,5R)-5-(4-aminopyrrolo[2,1-f][1,2,4]triazin-7-yl)-5-cyano-3,4-dihydroxytetrahydrofuran-2-yl)methyl ((R)-2-benzamido-3-(octadecyloxy)propyl) hydrogen phosphate] | 8.3 µM | 50 µM | 130 nM | 
8 | CCCCCCCCCCCCSCCCOP(=O)(O)OC[C@H]1O[C@@](C#N)(c2ccc3c(N)ncnn23)[C@H](O)[C@@H]1O [Example 63, [(2R,3S,4R,5R)-5-(4-Aminopyrrolo[2,1-f][1,2,4]triazin-7-yl)-5-cyano-3,4-dihydroxy-tetrahydrofuran-2-yl]methyl 3-dodecylsulfanylpropyl hydrogen phosphate] | 10 µM | 50 µM | 470 nM | 
9 | CCCCCCCCCCCCCCCCSCCCOP(=O)(O)OC[C@H]1O[C@@](C#N)(c2ccc3c(N)ncnn23)[C@H](O)[C@@H]1O [Example 65, [(2R,3S,4R,5R)-5-(4-Aminopyrrolo[2,1-f][1,2,4]triazin-7-yl)-5-cyano-3,4-dihydroxy-tetrahydrofuran-2-yl]methyl 3-hexadecylsulfanylpropyl hydrogen phosphate] |  | 50 µM |  | 
10 | CCCCCCCCCCCCCCCCCCOC[C@H](COP(=O)(O)OC[C@H]1O[C@@](C#N)(c2ccc3c(N)ncnn23)[C@H](O)[C@@H]1O)OCc1ccccc1 [Reference Compound, reference compound] |  |  |  | Total Lung Phosphate Level (monophosphate + diphosphate + triphosphate, nmol/g) [2]: 0.5 nmol/g
11 | CCCCCCCCCCCCCCCCCCOC[C@@H](OCc1ccccc1)C(C)OP(=O)(O)OC[C@H]1O[C@@](C#N)(c2ccc3c(N)ncnn23)[C@H](O)[C@@H]1O (single isomer, unassigned) [Example 13] |  | 29 µM |  | EC50 (SARS-CoV-2): 9.5 µM; EC50 ([1]; NHBE cells, RSV-Fluc MOI 0.1, three days, luciferase readout): 240 nM
12 | CCCCCCCCCOCCCOP(=O)(O)OC[C@H]1O[C@@](C#N)(c2ccc3c(N)ncnn23)[C@H](O)[C@@H]1O [Example 25, ((2R,3S,4R,5R)-5-(4-Aminopyrrolo[2,1-f][1,2,4]triazin-7-yl)-5-cyano-3,4-dihydroxytetrahydrofuran-2-yl)methyl (3-(nonyloxy)propyl) hydrogen phosphate] | 10 µM |  | 5000 nM | CC50 (MT-4 cells; [6]): 50 µM
13 | CCCCCCCCCCCCCCCCCCOC[C@@H](OCc1ccccc1)C(C)OP(=O)(O)OC[C@H]1O[C@@](C#N)(c2ccc3c(N)ncnn23)[C@H](O)[C@@H]1O (single isomer, unassigned) [Example 12] | 8.4 µM | 10 µM | 240 nM | 
14 | CCCCCCCCCCCCCCCCCCOC[C@H](COP(=O)(O)OC[C@H]1O[C@@](C#N)(c2ccc3c(N)ncnn23)[C@H](O)[C@@H]1O)N(C)Cc1cc(F)cc(C#N)c1 [Example 6, ((2R,3S,4R,5R)-5-(4-aminopyrrolo[2,1-f][1,2,4]triazin-7-yl)-5-cyano-3,4-dihydroxytetrahydrofuran-2-yl)methyl ((R)-2-((3-cyano-5-fluorobenzyl)(methyl)amino)-3-(octadecyloxy)propyl) hydrogen phosphate] | 10 µM | 50 µM | 570 nM | 
15 | CCCCCCCCCCCCCCCCCCOC[C@H](COP(=O)(O)OC[C@H]1O[C@@](C#N)(c2ccc3c(N)ncnn23)[C@H](O)[C@@H]1O)N(C)Cc1ccccc1 [Example 2, ((2R,3S,4R,5R)-5-(4-aminopyrrolo[2,1-f][1,2,4]triazin-7-yl)-5-cyano-3,4-dihydroxytetrahydrofuran-2-yl)methyl ((R)-2-(benzyl(methyl)amino)-3-(octadecyloxy)propyl) hydrogen phosphate] | 10 µM |  | 5000 nM | CC50 at 5 days [3]: 25000 nM
16 | CCCCCCCCCCCCCCCCCCC[C@H](COP(=O)(O)OC[C@H]1O[C@@](C#N)(c2ccc3c(N)ncnn23)[C@H](O)[C@@H]1O)OCc1ccccc1 [Example 72, ((2R,3S,4R,5R)-5-(4-aminopyrrolo[2,1-f][1,2,4]triazin-7-yl)-5-cyano-3,4-dihydroxytetrahydrofuran-2-yl)methyl ((R)-2-(benzyloxy)henicosyl) hydrogen phosphate] | 1.1 µM |  | 190 nM | CC50 at 5 days [3]: 3800 nM
17 | CCCCCCCCCCCCCCCCCCO[C@@H](C)[C@H](COP(=O)(O)OC[C@H]1O[C@@](C#N)(c2ccc3c(N)ncnn23)[C@H](O)[C@@H]1O)OCc1ccccc1 [Example 5, ((2R,3S,4R,5R)-5-(4-aminopyrrolo[2,1-f][1,2,4]triazin-7-yl)-5-cyano-3,4-dihydroxytetrahydrofuran-2-yl)methyl ((2S,3S)-2-(benzyloxy)-3-(octadecyloxy)butyl) hydrogen phosphate] | 2.5 µM |  | 50 nM | CC50 at 5 days [3]: 3400 nM
